{"source": "patent US20090176864A1", "about": "“Methods For Improving Hepatic and Immune Function In An Animal” (Hill's Pet Nutrition, Inc., priority 2004, published 2009)", "type_in_all_cases": "in vivo", "key": {"lymphocyte proliferation [1]": {"system": "lymphocyte proliferation", "assay": "Concanavalin A-activated lymphocyte proliferation", "settings": "cats; for Concanavalin A-activated lymphocyte proliferation compared to baseline: 6 weeks", "protocol": "(§1) The study involved three groups of cats: Group 1) cats on a dry control food, Group 2) cats on a dry food fortified with approximately 65 ppm of lipoic acid, and Group 3) cats on a dry food fortified with approximately 650 ppm of lipoic acid on a dry matter basis. All cats were fled control food for a two week baseline period at the end of which time immune function assays were performed. One group of cats was then switched to the 65 ppm test food, one group to the 650 ppm test food and one group remained on control and all were fed for another 6 weeks at which time the baseline tests were performed again."}, "[2]": {"assay": "Bodyweight of cats fed lipoic acid fortified food", "protocol": "as §1"}, "lymphocyte proliferation [3]": {"system": "lymphocyte proliferation", "assay": "Phytohaemagglutinin (PHA)-activated lymphocyte proliferation", "settings": "cats", "protocol": "as §1"}, "lymphocyte proliferation [4]": {"system": "lymphocyte proliferation", "assay": "Pokeweed mitogen-activated lymphocyte proliferation", "settings": "cats", "protocol": "as §1"}, "lymphocyte proliferation [5]": {"system": "lymphocyte proliferation", "assay": "Lymphocyte proliferation activity in old cats (overall statement)", "settings": "lipoic acid in food", "protocol": "as §1"}, "[6]": {"settings": "65 ppm lipoic acid in food, 6 weeks"}}, "data": [{"smiles": "O=C(O)CCCC[C@@H]1CCSS1", "note": "(racemic) [lipoic acid]", "values": [{"measurement": "Concanavalin A-activated lymphocyte proliferation compared to baseline", "setting": "lymphocyte proliferation [1]; 65 ppm lipoic acid in food", "value": "significant increase"}, {"measurement": "Concanavalin A-activated lymphocyte proliferation compared to baseline", "setting": "lymphocyte proliferation [1]; 650 ppm lipoic acid in food", "value": "displayed an increase"}, {"measurement": "Concanavalin A stimulation, difference between the groups", "setting": "lymphocyte proliferation [1]; control vs 65 ppm vs 650 ppm, beginning and end of study", "value": "no significant difference"}, {"measurement": "effects on bodyweight", "setting": "[2]; 65 ppm lipoic acid in food for 6 weeks", "value": "no adverse effects"}, {"measurement": "effects on bodyweight", "setting": "[2]; 650 ppm lipoic acid in food for 6 weeks", "value": "no adverse effects"}, {"measurement": "PHA-stimulated lymphocyte proliferation between baseline and 6 weeks", "setting": "lymphocyte proliferation [3]; [6]", "value": "significant increase"}, {"measurement": "PHA stimulation, difference between groups", "setting": "lymphocyte proliferation [3]; control vs 65 ppm vs 650 ppm, beginning or end", "value": "no significant difference"}, {"measurement": "Pokeweed mitogen-stimulated lymphocyte proliferation compared to baseline", "setting": "lymphocyte proliferation [4]; [6]", "value": "significantly increased"}, {"measurement": "Pokeweed Mitogen stimulation, difference between groups", "setting": "lymphocyte proliferation [4]; control vs 65 ppm vs 650 ppm, ANOVA, beginning and end of study", "value": "different between groups (ANOVA P<0.05) at the beginning but not the end"}, {"measurement": "lymphocyte proliferation activity", "setting": "lymphocyte proliferation [5]", "value": "improved"}]}]}
